From patent publication US10278957B2, “Opioid agonist peptides and uses thereof” (Protagonist Therapeutics, Inc., priority 2017, dated 2019)
Square brackets hold non-standard residues; d marks the D form. Peptide text beside a SMILES is read from it. Phe(4-F) = N[C@@H](Cc1ccc(F)cc1)C(=O)O; Dmt = Cc1cc(O)cc(C)c1C[C@H](N)C(=O)O; dTic = O=C(O)[C@H]1Cc2ccccc2CN1; Sar = CNCC(=O)O

Experiments:
μ-opioid receptor (MOR) = biological target: T1, μ-opioid receptor (MOR) (Homo sapiens, UniProt P35372); assay: MOR agonist cAMP assay (HitHunter cAMP, forskolin-stimulated); format: cell-based
T1 construct: host or cells: cAMP Hunter CHO-K1 OPRM1 Gαi cell line
Procedure: (§1) The HitHunter® cAMP chemiluminescent assay kit (DiscoveRx, Cat# 90-0075 SM25) was used to detect cAMP production in cAMP Hunter™ Gαi cell lines over expressing either Human-ORPM1 (Discoverx, Catalog# 95-0107C2) or Human-ORPD1 (DiscoveRx, Catalog# 95-0108C2). Opioid agonist binding to the Gαi receptors inhibits the intracellular cAMP accumulation induced by forskolin, which activates adenylate cyclase and increases intracellular levels of cAMP.
(§2) Cells were cultured in media consisting of Ham's F-12 Nutrient Mix (Life Technologies, Catalog#31765035), 10% FBS (Life Technologies, Catalog# 16140-071), 4 mM GlutaMAX (Life Technologies, Catalog#35050-061), […] (Life Technologies), 100 ug/ml of Penn-Strep (Life Technologies) and 0.5 mg/ml Geneticin (Life Technologies, Catalog# 10131-027). The cultures were maintained at 37° C. under 5% CO2.
(§3) In preparation for cAMP assay, the cells were seeded at a density of 300,000 cells/ml in 100 ul of media/well in 96-well microplate. Wells that were designated for cAMP standards were left empty.
(§4) Opioid agonist serial dilutions were prepared in separate dilution plate (11-point series of 3× (3-fold) dilution) in Cell Assay buffer, including 3× forskolin for Gαi target. For Hunter CHO-K1 OPRM1 or CHO-K1 OPRD1 Gαi Cell Lines, the final forskolin concentration was 20 uM.
(§5) 15 ul of each 3× opioid agonist serial dilution was added in the presence of forskolin in duplicate to the designated wells. The final concentration of each dilution was at 3× of the final screening concentration. The assay plate was incubated for 30 min, at 37° C. under 5% CO2.
(§6) Cellular cAMP concentrations were measured using the HitHunter cAMP Assay kit following the manufacturer's protocol. HitHunter cAMP assay is a gain-of-signal competitive immunoassay based on Enzyme Fragment Complementation (EFC) technology. The kit uses β-galactosidase (β-gal) enzyme split into Enzyme Donor (ED) and Enzyme Acceptor (EA). The cellular cAMP and ED-labelled cAMP compete for anti-cAMP antibody. […] When cellular cAMP level is high, it competes for the anti-cAMP antibody, thereby releasing ED-cAMP to complement with EA to produce a luminescent signal. The amount of signal is directly proportional to the amount of cAMP in cells and can be quantified using cAMP standards. The assay plates were read using a PerkinElmer Envision instrument to detect the chemiluminescence signal in each well (luminescence reader at 0.1 to 1 second/well). Data analysis was performed using Graphpad Prism 7.EC50 was calculated by nonlinear regression, using the four-parameter hill equation.

δ-opioid receptor (DOR) = biological target: T2, δ-opioid receptor (DOR) (Homo sapiens, UniProt P41143); assay: DOR agonist cAMP assay (HitHunter cAMP, forskolin-stimulated); format: cell-based
T2 construct: host or cells: cAMP Hunter CHO-K1 OPRD1 Gαi cell line
Procedure: as §1, §2, §3, §4, §5, §6

T1 sequence (P35372 whole entry): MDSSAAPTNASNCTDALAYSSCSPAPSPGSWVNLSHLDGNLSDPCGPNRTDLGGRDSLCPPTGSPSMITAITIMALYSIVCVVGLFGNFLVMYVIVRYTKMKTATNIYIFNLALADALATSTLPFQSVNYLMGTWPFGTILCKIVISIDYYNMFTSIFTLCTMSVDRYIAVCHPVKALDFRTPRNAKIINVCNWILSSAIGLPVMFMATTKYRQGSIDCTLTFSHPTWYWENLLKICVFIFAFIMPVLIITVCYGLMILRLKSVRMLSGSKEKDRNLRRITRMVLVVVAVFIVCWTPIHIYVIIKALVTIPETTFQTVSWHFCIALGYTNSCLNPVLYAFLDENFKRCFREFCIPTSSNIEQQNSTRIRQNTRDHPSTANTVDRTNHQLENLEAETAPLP
T2 sequence (P41143 whole entry): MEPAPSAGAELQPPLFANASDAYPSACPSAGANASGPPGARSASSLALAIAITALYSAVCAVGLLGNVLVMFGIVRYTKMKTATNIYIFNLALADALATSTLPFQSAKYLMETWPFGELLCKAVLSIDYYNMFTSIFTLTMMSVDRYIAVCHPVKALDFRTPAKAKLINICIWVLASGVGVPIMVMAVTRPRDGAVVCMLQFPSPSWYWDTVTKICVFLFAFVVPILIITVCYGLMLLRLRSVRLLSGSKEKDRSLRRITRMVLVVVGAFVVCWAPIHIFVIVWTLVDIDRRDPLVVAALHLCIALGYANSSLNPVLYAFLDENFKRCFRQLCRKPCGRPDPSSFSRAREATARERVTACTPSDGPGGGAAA

| Compound | EC50 (μ-opioid receptor (MOR)) [nM] | EC50 (δ-opioid receptor (DOR)) [nM] |
| --- | --- | --- |
| CCCC[C@@H](C(=O)O)N(C)C(=O)C[C@H](Cc1ccccc1F)NC(=O)CNC(=O)[C@@H](C)NC(=O)[C@@H](N)Cc1c(C)cc(O)cc1C [compound 143] | < 1 | < 1 |
| CCCC[C@@H](C(=O)O)N(C)C(=O)C[C@H](Cc1ccc(O)cc1)NC(=O)CNC(=O)[C@@H](C)NC(=O)[C@@H](N)Cc1c(C)cc(C(N)=O)cc1C [compound 168] | 1 to 10 | < 1 |
| Cc1cc(O)cc(C)c1C[C@H](N)C(=O)N[C@H](CCCNC(=N)N)C(=O)N[C@@H](Cc1ccc(F)cc1)C(=O)N(C)CC(N)=O [compound 19] (H-[Dmt][dR][Phe(4-F)][Sar]-NH2) | < 1 | 1 to 10 |
| CCCC[C@@H](C(=O)O)N(C)C(=O)C[C@H](Cc1ccc(I)cc1)NC(=O)CNC(=O)[C@@H](C)NC(=O)[C@@H](N)Cc1c(C)cc(O)cc1C [compound 150] | < 1 | < 1 |
| Cc1cc(O)cc(C)c1C[C@H](N)C(=O)N[C@H](CC(=O)O)C(=O)NCC(=O)N[C@H](CC(=O)N(C)[C@H](C(=O)O)c1ccccc1)Cc1ccccc1 [compound 176] | < 1 | < 1 |
| C[C@@H](NC(=O)[C@@H](N)Cc1ccc(C(N)=O)cc1)C(=O)NCC(=O)N[C@H](CC(=O)N(C)CC(N)=O)Cc1ccccc1 [compound 60] | 1 to 10 | 1 to 10 |
| CCCC[C@@H](C(=O)O)N(C)C(=O)C[C@H](Cc1ccccc1Br)NC(=O)CNC(=O)[C@@H](C)NC(=O)[C@@H](N)Cc1c(C)cc(O)cc1C [compound 146] | < 1 | < 1 |
| CCCCCCCCCCCCCCCCN(CC(N)=O)C(=O)C[C@H](Cc1ccccc1)NC(=O)CNC(=O)[C@@H](C)NC(=O)[C@@H](N)Cc1c(C)cc(O)cc1C [compound 125] | 1 to 10 | 1 to 10 |
| CCCC[C@@H](C(=O)O)N(C)C(=O)[C@@H](Cc1ccccc1)N(C)C(=O)CNC(=O)[C@@H](C)NC(=O)[C@@H](N)Cc1c(C)cc(O)cc1C [compound 154] | < 1 | – |
| CCC[C@@H](C(N)=O)N(C)C(=O)C[C@H](Cc1ccccc1)NC(=O)CNC(=O)[C@@H](C)NC(=O)[C@@H](N)Cc1c(C)cc(O)cc1C [compound 184] | < 1 | < 1 |
| Cc1cc(O)cc(C)c1C[C@H](N)C(=O)NC(C)(C)C(=O)NCC(=O)N[C@H](CC(=O)N(C)CC(N)=O)Cc1ccccc1 [compound 90] | < 1 | 1 to 10 |
| Cc1cc(O)cc(C)c1C[C@H](N)C(=O)N[C@H](CCCNC(=N)N)C(=O)N[C@@H](Cc1ccccc1)C(=O)N(C)CC(N)=O [compound 9] (H-[Dmt][dR]F[Sar]-NH2) | < 1 | 1 to 10 |
| CCCC[C@@H](C(=O)O)N(C)C(=O)C[C@H](Cc1cccc(F)c1)NC(=O)CNC(=O)[C@@H](C)NC(=O)[C@@H](N)Cc1c(C)cc(O)cc1C [compound 144] | < 1 | < 1 |
| Cc1cc(O)cc(C)c1C[C@H](N)C(=O)N[C@H](C)C(=O)NCC(=O)N[C@H](CC(=O)N[C@@H](Cc1ccc2ccccc2c1)C(N)=O)Cc1ccccc1 [compound 114] | 1 to 10 | 1 to 10 |
| Cc1cc(O)cc(C)c1C[C@H](N)C(=O)N[C@H](CC(=O)O)C(=O)NCC(=O)N[C@H](CC(=O)N(C)[C@@H](C)C(=O)O)Cc1ccccc1 [compound 170] | < 1 | < 1 |
| CCCC[C@@H](C(=O)O)N(C)C(=O)C[C@H](Cc1c[nH]c2ccccc12)NC(=O)CNC(=O)[C@@H](C)NC(=O)[C@@H](N)Cc1c(C)cc(O)cc1C [compound 153] | 1 to 10 | < 1 |
| CCCC[C@@H](C(=O)O)N(C)C(=O)C[C@H](Cc1cccc(C)c1)NC(=O)CNC(=O)[C@@H](C)NC(=O)[C@@H](N)Cc1c(C)cc(O)cc1C [compound 141] | < 1 | < 1 |

| Compound | EC50 (μ-opioid receptor (MOR)) [nM] | EC50 (δ-opioid receptor (DOR)) [nM] |
| --- | --- | --- |
| C[C@@H](NC(=O)[C@@H](N)Cc1ccc(C(=O)O)cc1)C(=O)NCC(=O)N[C@H](CC(=O)N(C)CC(N)=O)Cc1ccccc1 [compound 89] | 50 to 200 | 50 to 200 |
| Cc1cc(C(N)=O)cc(C)c1C[C@H](N)C(=O)N[C@H](C)C(=O)NCC(=O)N[C@H](CC(=O)N(C)[C@@H](Cc1c[nH]c2ccccc12)C(=O)O)Cc1ccccc1 [compound 106] | 1 to 10 | 1 to 10 |
| Cc1cc(O)cc(C)c1C[C@H](N)C(=O)N[C@H](C)C(=O)NCC(=O)N[C@H](CC(=O)N(C)[C@@H](Cc1ccc(O)cc1)C(=O)O)Cc1ccccc1 [compound 160] | < 1 | < 1 |
| CCCC[C@@H](C(=O)O)N(C)C(=O)C[C@H](Cc1ccc(C)cc1)NC(=O)CNC(=O)[C@@H](C)NC(=O)[C@@H](N)Cc1c(C)cc(O)cc1C [compound 142] | 1 to 10 | < 1 |
| CCCC[C@@H](C(=O)O)N(C)C(=O)C[C@H](Cc1ccccc1)NC(=O)CNC(=O)[C@@H](CC(=O)O)NC(=O)[C@@H](N)Cc1c(C)cc(O)cc1C [compound 178] | < 1 | < 1 |
| CC[C@H](C)[C@@H](C(=O)O)N(C)C(=O)C[C@H](Cc1ccccc1)NC(=O)CNC(=O)[C@H](NC(=O)[C@@H](N)Cc1c(C)cc(O)cc1C)[C@H](C)O [compound 182] | < 1 | < 1 |
| Cc1cc(O)cc(C)c1C[C@H](N)C(=O)N1Cc2ccccc2C[C@@H]1C(=O)NCC(=O)N[C@@H](Cc1ccccc1)C(=O)N(C)CC(N)=O [compound 45] (H-[Dmt][dTic]GF[Sar]-NH2) | < 1 | < 1 |
| Cc1cc(O)cc(C)c1C[C@H](N)C(=O)N[C@H](CCC(=O)O)C(=O)NCC(=O)N[C@H](CC(=O)N(C)CC(N)=O)Cc1ccccc1 [compound 187] | < 1 | 1 to 10 |
| Cc1cc(C(N)=O)cc(C)c1C[C@H](N)C(=O)N1Cc2ccccc2C[C@H]1C(=O)NCC(=O)N[C@H](CC(=O)N(C)CC(N)=O)Cc1ccccc1 [compound 103] | 50 to 200 | 50 to 200 |
| CCCC[C@@H](C(=O)O)N(C)C(=O)C[C@H](Cc1ccc(F)cc1)NC(=O)CNC(=O)[C@@H](C)NC(=O)[C@@H](N)Cc1c(C)cc(O)cc1C [compound 145] | < 1 | < 1 |
| Cc1cc(O)cc(C)c1C[C@H](N)C(=O)N[C@H](C)C(=O)NCC(=O)N[C@H](CC(=O)N(C)[C@@H](CC1CCCCC1)C(=O)O)Cc1ccccc1 [compound 156] | < 1 | 1 to 10 |
| CCCC[C@@H](C(=O)O)N(C)C(=O)C[C@H](Cc1cccc(C)c1)NC(=O)CNC(=O)[C@@H](C)NC(=O)[C@@H](N)Cc1c(C)cc(C(N)=O)cc1C [compound 164] | < 1 | < 1 |
| Cc1cc(O)cc(C)c1C[C@H](N)C(=O)N[C@H](CC(=O)O)C(=O)NCC(=O)N[C@H](CC(=O)N(C)[C@@H](Cc1c[nH]c2ccccc12)C(=O)O)Cc1ccccc1 [compound 171] | < 1 | < 1 |
| CC[C@H](C)[C@@H](C(=O)O)N(C)C(=O)C[C@H](Cc1ccccc1)NC(=O)CNC(=O)[C@@H](CC(=O)O)NC(=O)[C@@H](N)Cc1c(C)cc(O)cc1C [compound 172] | < 1 | < 1 |
| CCCC[C@H](NC(=O)[C@H](CCc1ccccc1)NC(=O)CNC(=O)[C@@H](C)NC(=O)[C@@H](N)Cc1c(C)cc(O)cc1C)C(N)=O [compound 49] | < 1 | – |
| Cc1cc(O)cc(C)c1C[C@H](N)C(=O)N[C@H](C)C(=O)NCC(=O)N[C@@H](Cc1ccc(F)cc1)C(=O)NCC(N)=O [compound 38] | – | < 1 |
